{
  "source": "patent US10905738B2",
  "about": "“Synthetic peptides, prodrugs, pharmaceutical compositions and uses” (Biozeus Desenvolvimento De Produtos Biofarmacêuticos, priority 2018, dated 2021)",
  "key": {"[1]": {"tested_on": "smooth muscle of tracheal rings", "assay": "spasmodic contraction of tracheal rings ex vivo (histamine-induced)", "parameters": "species or system Dunkin-Hartley guinea pigs", "conditions": "mean±SEM", "protocol": "The magnitude of the relaxing effect of the peptides was evaluated by means of a model of spasmodic contraction of tracheal rings ex vivo, largely employed to test new bronchodilating agents (see CULLUM, V. A., FARMER, J. B., JACK, D., LEVY, G. P. Salbutamol: a new, selective β-adrenoceptive receptor stimulant. British journal of pharmacology, 35(1): 141-151. 1969; KAO, C. H., CHU, Y. H., WANG, H. W. Effects of lidocaine on rat's isolated tracheal smooth muscle. European Archives of Oto-Rhino-Laryngology, 267(5): 817-820. 2010; SORIANO-URSÚA, M. A., VALENCIA-HERNÁNDEZ, I., ARELLANO-MENDOZA, M. G., CORREA-BASURTO, J., TRUJILLO-FERRARA, J. G. Synthesis, pharmacological and in silico evaluation of 1-(4-dihydroxy-3, 5-dioxa-4-borabycyclo [4.4.0] deca-7,9,11-trien-9-yl)-2-(tert-butylamine) ethanol, a compound designed to act as a β2 adrenoceptor agonist. European journal of medicinal chemistry, 44(7): 2840-2846. 2009).\nFor each test, Dunkin-Hartley guinea pigs (400-500 g) were euthanized in a CO2 atmosphere; subsequently, the trachea was exposed, removed and sectioned in segments of 1 to 3 cartilaginous tracheal rings. Each segment was transferred to an individual organ bath system containing Krebs nutritive solution (NaCl 118 mM; KCl […]; CaCl2) 2.5 mM; MgSO4 1.2 mM; KH2PO4 1.2 mM; NaHCO324 mM; glucose 11 mM) at 37° C., under constant aeration with a carbogenic mixture (95% of O2 and 5% of CO2). In each system, a stem fixed to the base of the container and another connected to an isometric transducer (GRASS FT-03) made up the support of the fragments. A data digitizing system connected to the isometric transducer allowed the recording of tension variations produced by the contraction of the tracheal rings (PowerLab™ 16/30, LabChart, version 8.1, AD Instruments, Australia). The basal tension was adjusted to 1 g, and subsequently, the contractility of the fragments was evaluated by a stimulus with carbachol (2.5 μM). After 1 h at rest, the basal tension was recovered and the tissues were subjected to contraction induced by histamine (50 μM) followed by exposure to increasing concentrations of the treatments (0.01 to 10 μM; n=8) or the comparator PnTx(19).\nTable 1 lists the mean±SEM of the potency values, shown as the negative logarithm of the concentration that reduced the voltage to 50% of the maximum Histamine-induced contraction (pEC50), and efficacy (Emax), calculated from at least 8 independent tests using the sigmoid nonlinear regression equation of the software Graph Prism 5.0 (GraphPad Software, La Jolla, Ca, USA)."}, "cavernosal strips": {"tested_on": "cavernosal strips", "assay": "relaxation induced by electric stimuli in cavernosal strips pre-contracted with phenylephrine ex vivo", "parameters": "species or system rats of Sprague Dawley (SD) lineage", "conditions": "peptides 10^−10 M; 10^−8 M; 10^−6 M; FIG. 3", "protocol": "The relaxing potential of the peptides of the present invention on the smooth muscles of cavernous strips was evaluated ex vivo using tissue isolated from rats, a model that is largely used to test drug candidates for the treatment of ED (ITALIANO, G., CALABRÒ, A., PAGANO, F. A simplified in vitro preparation of the corpus cavernosum as a tool for investigating erectile pharmacology in the rat. Pharmacological research, 30(4): 325-334. 1994; GEMALMAZ, H., WALDECK, K., CHAPMAN, T. N., TUTTLE, J. B., STEERS, W. D., ANDERSSON, K E. In vivo and in vitro investigation of the effects of sildenafil on rat cavernous smooth muscle. The Journal of Urology, 165(3): 1010-1014.2001).\nMale rats of Sprague Dawley (SD) lineage were sacrificed by guillotine; the penises were removed surgically and placed on a Petri dish containing Krebs—bicarbonate solution (NaCl 118.1 mM; KCl 4.7 mM; KH2PO4 1.0 mM; MgSO4 1.0 mM; NaHCO3 25.0 mM; CaCl2) 2.5 mM and Glucose 11.1 mM). The corpus cavernosum were dissected by removing the glans, urethra, spongeous body and dorsal vein, and then separated by cutting the fibrous septum between them. Cavernosal strips measuring 2×2×7 mm were mounted separately in a bath for isolated organs containing bicarbonate solution-Krebs (pH 7.4) at 37° C., aerated with 95% of O02 and 5% of CO2. The tissue was connected to a tension transducer and the changes in tension were continuously registered. The cavernosal strips were contracted with phenylephrine (10^−5 M) and subsequently relaxed by electrical stimulation at different frequencies (1 to 32 Hz). […] Differences in the percentage of relaxation between treatment and control were evaluated with regard to statistical significance by means of two-way variance analysis (Two-Way ANOVA) followed by Bonferroni post-test. For the comparison between the treatments and control in light of the stimulation in a single frequency, the results were evaluated by one-way analysis variance (One-Way ANOVA) followed by Bonferroni post-test. […]"}},
  "data": [
    {"sequence": "RQYFWIAWYKLANSK [SEQ ID NO: 5, Ac-Arg-Gln-Tyr-Phe-Trp-Ile-Ala-Trp-Tyr-Lys-Leu-Ala-Asn-Ser-Lys-NH2]", "values": [
      {"measurement": "Effectiveness (Emax) (%)", "setting": "[1]; relaxation of tracheal rings contracted by histamine (50 μM)", "value": "Inactive"},
      {"measurement": "Potency (pEC50) Molar", "setting": "[1]; tracheal rings contracted by histamine (50 μM), peptides 0.01 to 10 μM", "value": "Inactive"},
      {"measurement": "enhancing effect on relaxation induced by electric stimuli in strips of cavernous body contracted by phenylephrine", "setting": "cavernosal strips", "value": "enhancing effect"}
    ]}
  ]
}
